Measured values reported in PubChem BioAssay AID588495 (Sanford-Burnham Center for Chemical Genomics, 2011).
The source made the active and inactive calls.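 The calls were made as follows: active = mean EC50 of 20 µM or lower; inactive = the rest.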

Molecular target: Neurotensin receptor type 2 (Homo sapiens) (UniProt O95665)
Assay: NTR2 agonist activity for selectivity, SAR follow-up, selectivity assay for NTR1 agonist project, imaging, NTR2-U2OS cells, beta-arrestin GFP imaging (AID 588495)
Conditions: image-based GFP translocation

Chain of Neurotensin receptor type 2 (Homo sapiens) (O95665 whole entry, looked up): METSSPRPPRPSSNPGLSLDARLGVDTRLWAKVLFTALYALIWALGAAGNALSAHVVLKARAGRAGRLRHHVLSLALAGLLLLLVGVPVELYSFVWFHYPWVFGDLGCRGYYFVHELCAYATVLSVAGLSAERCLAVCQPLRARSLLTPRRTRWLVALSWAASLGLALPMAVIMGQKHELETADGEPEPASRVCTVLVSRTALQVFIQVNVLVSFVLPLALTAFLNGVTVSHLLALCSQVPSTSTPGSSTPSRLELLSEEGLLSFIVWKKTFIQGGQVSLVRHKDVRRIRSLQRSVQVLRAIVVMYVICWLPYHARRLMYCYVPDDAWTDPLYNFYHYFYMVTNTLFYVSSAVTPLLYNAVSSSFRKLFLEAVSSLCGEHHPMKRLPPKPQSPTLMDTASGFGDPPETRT

Row | EC50 | Compound
1 | > 40 µM (inactive) | COc1cccc(OC)c1-c1nc(C(=O)N[C@@H](CC(C)C)C(=O)O)cn1-c1ccnc2ccccc12
2 | > 40 µM (inactive) | COc1cc2c3nnc(-c4ccccc4)c-3cn(Cc3ccc(F)cc3)c2cc1OC
3 | 15.3 µM | Cc1ccc(Cn2cc3c(-c4ccc(F)cc4)nnc-3c3cc4c(cc32)OCO4)cc1
4 | > 40 µM (inactive) | COc1ccc(Cn2c(SCc3cccc(C(F)(F)F)c3)nc3cc(OC)c(OC)cc3c2=N)cc1Cl
5 | > 40 µM (inactive) | CC(C)C[C@H](NC(=O)c1cn(-c2ccnc3ccccc23)c2ccccc12)C(=O)O
6 | > 40 µM (inactive) | COc1cc2nc(-c3ccccc3)nc(N3CCN(c4ccccc4F)CC3)c2cc1OC
7 | > 40 µM (inactive) | COc1cccc(OC)c1-c1nc(C(=O)O)cn1-c1ccncc1
8 | > 40 µM (inactive) | Cc1ccc(-n2ncc3c(N4CCN(c5ccc([N+](=O)[O-])cc5)CC4)ncnc32)c(C)c1
9 | > 40 µM (inactive) | CCOc1ccc(-c2nnc3c4cc(OC)c(OC)cc4n(Cc4ccc(C)cc4)cc2-3)cc1
10 | > 40 µM (inactive) | COc1ccc(Cn2c(SCc3ccccc3C)nc3cc(OC)c(OC)cc3c2=N)cc1Cl
11 | > 40 µM (inactive) | CN(C)S(=O)(=O)c1ccc(-c2csc(N/N=C/c3cccc(Cl)c3)n2)cc1
12 | > 40 µM (inactive) | COc1cc2nc(C3CCC3)nc(N3CCN(c4ccccc4)CC3)c2cc1OC
13 | > 40 µM (inactive) | COc1cc2ncnc(N3CCN(c4ccccc4OC)CC3)c2cc1OC
14 | > 40 µM (inactive) | COc1cccc(OC)c1-c1nc(C(=O)NC2(C(=O)O)C3CC4CC(C3)CC2C4)cn1-c1ccnc2cc(Cl)ccc12 (centres undefined)
15 | > 40 µM (inactive) | COc1ccc(-c2nc(C(=O)N[C@@H](CC(C)C)C(=O)O)cn2-c2ccnc3cc(Cl)ccc23)c(OC)c1
16 | > 40 µM (inactive) | COc1cccc(OC)c1-c1cc(C(=O)N[C@@H](CC(C)C)C(=O)OC(C)(C)C)nn1-c1ccnc2cc(Cl)ccc12
17 | > 40 µM (inactive) | COc1cccc(OC)c1-c1nc(C(=O)N[C@@H](CC(C)C)C(=O)O)cn1-c1ccc(C)cc1
18 | > 40 µM (inactive) | CCN(CC)c1ccc(/C=N/Nc2nc(-c3ccc(S(=O)(=O)N(C)C)cc3)cs2)cc1
19 | > 40 µM (inactive) | Clc1cccc(-n2ncc3c(N4CCN(c5ccccc5)CC4)ncnc32)c1
20 | > 40 µM (inactive) | Cc1ccc(-n2ncc3c(N4CCN(c5ccccc5)CC4)ncnc32)c(C)c1
21 | > 40 µM (inactive) | COc1ccc(-c2nnc3c4cc(OC)c(OC)cc4n(Cc4ccccc4)cc2-3)cc1
22 | > 40 µM (inactive) | COc1ccc2c(c1)c1nnc(-c3ccc(F)cc3)c-1cn2Cc1ccc(C)cc1
23 | > 40 µM (inactive) | COc1cccc2c(C(=O)N[C@@H](CC(C)C)C(=O)O)cn(-c3ccnc4cc(Cl)ccc34)c12
24 | > 40 µM (inactive) | Clc1ccccc1-n1ncc2c(N3CCN(c4ccccc4)CC3)ncnc21
25 | > 40 µM (inactive) | Clc1ccc(-n2ncc3c(N4CCN(c5ccccc5)CC4)ncnc32)cc1
26 | > 40 µM (inactive) | CCOc1cc2nc(-c3ccc(OC)c(OC)c3)nc(N3CCN(c4ccccc4F)CC3)c2cc1OC
27 | > 40 µM (inactive) | CN(C)S(=O)(=O)c1ccc(-c2csc(N/N=C/c3cccs3)n2)cc1
28 | > 40 µM (inactive) | CN(C)S(=O)(=O)c1ccc(-c2csc(N/N=C/c3ccccc3)n2)cc1
29 | > 40 µM (inactive) | Fc1ccc(-n2ncc3c(N4CCN(c5ccccc5)CC4)ncnc32)cc1
